Assay results reported in PubChem BioAssay AID2060489 (Molecular Pharmacology Branch, DTP, NCI, 2025).
Values joined by “and” are separate entries in the source; they are usually repeats but may differ in a detail not shown here. Equal entries are not always repeated.

Test system: 922993-354-T-J3-PDC complex spheroids, viability
Assay: Anticancer human tumor 922993-354-T-J3-PDC patient-derived endometrial carcinoma cell line growth inhibition [GQUAD]
Details: for viability, T/C: stronger effect = lower value
Text: DNA G-quadruplex Stabilizer Agents in Combinations in Complex Spheroids
A high-throughput screen of multi-cell type tumor spheroids was designed to identify active combinations of DNA G-quadruplex stabilizer agents and targeted small molecules. Complex spheroids include a stromal component modeled by human endothelial cells (HUVEC) and fibroblasts modeled by human mesenchymal stem cells (MSCs). The concentration ranges selected for each drug and investigational agent were based upon clinically achievable concentrations if the clinical Cmax of the agent was known.
Compounds. The drugs and investigational agents: pidnarulex (CX-5461; NSC782164), APTO-253 (NSC789042), BRACO-19 (NSC847499), peposertib (NSC802822), ceralasertib (NSC780249), elimusertib (NSC800525), camonsertib (NSC841442), AZD-1390 (NSC803789), olaparib (NSC753686), talazoparib (NSC767125), ART-558 (NSC835418), sotorasib (NSC818433), MRTX-1133 (NSC836407), SN-38 (NSC673596), topotecan (NSC609699), etoposide (NSC141540), doxorubicin (NSC123127), gemcitabine (NSC613327), 5-fluorouracil (NSC19893), paclitaxel (NSC125973), vemurafenib (NSC761431), panobinostat (NSC761190), R-306465 (JNJ-16241199; NSC773264), adavosertib (NSC754352), TP-3654 (NSC805149), carboplatin (NSC241240), KSQ-4279 (NSC840948), and staurosporine (NSC755774) were obtained from the National Cancer Institute (NCI) Developmental Therapeutics Program Chemical Repository (34). The FDA-approved anticancer drug set is available from the NCI Developmental Therapeutics Program. […] The stock solutions were prepared in dimethyl sulfoxide (DMSO, Sigma-Aldrich, St. Louis, MO, cat. D2650) at 800-fold the tested concentration and stored at -70 degrees C prior to their use. All drugs and investigational agents were tested over a range starting from a high concentration at or near the clinical Cmax and decreasing in half-log increments. If the clinical Cmax for an agent had not been determined, the highest concentration tested was 10 microM.
2.3 Cell Culture. All cells were maintained in an incubator at 37 degrees C and 5% CO2 with 95% humidity. The PDC lines were cultured according to standard operating procedures established by the NCI PDMR. All PDCs were thawed and cultured in Matrigel-coated flasks prepared with a working solution of 1X Ham's F-12 nutrient mix, without supplementation (Invitrogen, cat. 11765054), 100 U/mL penicillin-streptomycin (Invitrogen, cat. 15140122), and 2.5% Matrigel (Corning Inc., cat. 354248) for the first three passages. The 857933-349-R-J2-PDC line was cultured in 6C/Colon 1B media, which includes advanced DMEM/F-12 (Thermo Fisher Scientific, cat. 12634028), 10 mM HEPES (Thermo Fisher Scientific, cat. 15630080), 1X GlutaMAX supplement (Thermo Fisher Scientific, cat. 35050061), 0.1 mg/mL primocin (InvivoGen, cat. ant-pm-2), 10% defined fetal bovine serum, heat inactivated (HyClone Laboratories Inc., cat. SH30070.03HI), 50% L-WRN conditioned media (ATCC, cat. CRL-3276), 1.25 mM N-Acetyl-L-cysteine (Sigma-Aldrich, cat. A9165), 10 mM nicotinamide (Sigma-Aldrich, cat. N0636), 1X B-27 supplement (Thermo Fisher Scientific, cat. 17504044), 1X N-2 supplement (Thermo Fisher Scientific, cat. 17502048), 10 microM Y-27632 dihydrochloride (Tocris Bioscience, cat. 1254), and 50 ng/mL human EGF recombinant protein (Thermo Fisher Scientific, cat. PHG0311). The 485176-168-R4-J1-PDC line was cultured in Panc media, which includes all 6C/Colon 1B media components plus 100 ng/mL human FGF-10 (Thermo Fisher Scientific, cat. 100-26), 500 nM SB-431542 (Selleckchem, cat. S1067), and gastrin (Tocris, cat. 3006).
[…]

[1] = curve of first compound, second compound 0.0316 µM
[2] = curve of first compound, second compound 0.1 µM
[3] = curve of first compound, second compound 0.316 µM
[4] = curve of first compound, second compound 1 µM
[5] = curve of first compound, second compound 3.16 µM
[6] = curve of first compound, second compound 10 µM
[7] = second compound 0.0316 µM, first compound 0.0316 µM
[8] = second compound 0.0316 µM, first compound 0.1 µM
[9] = second compound 0.0316 µM, first compound 0.316 µM
[10] = second compound 0.0316 µM, first compound 1 µM
[11] = second compound 0.0316 µM, first compound 3.16 µM
[12] = second compound 0.0316 µM, first compound 10 µM
[13] = second compound 0.1 µM, first compound 0.0316 µM
[14] = second compound 0.1 µM, first compound 0.1 µM
[15] = second compound 0.1 µM, first compound 0.316 µM
[16] = second compound 0.1 µM, first compound 1 µM
[17] = second compound 0.1 µM, first compound 3.16 µM
[18] = second compound 0.1 µM, first compound 10 µM
[19] = second compound 0.316 µM, first compound 0.0316 µM
[20] = second compound 0.316 µM, first compound 0.1 µM
[21] = second compound 0.316 µM, first compound 0.316 µM
[22] = second compound 0.316 µM, first compound 1 µM
[23] = second compound 0.316 µM, first compound 3.16 µM
[24] = second compound 0.316 µM, first compound 10 µM
[25] = second compound 1 µM, first compound 0.0316 µM
[26] = second compound 1 µM, first compound 0.1 µM
[27] = second compound 1 µM, first compound 0.316 µM
[28] = second compound 1 µM, first compound 1 µM
[29] = second compound 1 µM, first compound 3.16 µM
[30] = second compound 1 µM, first compound 10 µM
[31] = second compound 3.16 µM, first compound 0.0316 µM
[32] = second compound 3.16 µM, first compound 0.1 µM
[33] = second compound 3.16 µM, first compound 0.316 µM
[34] = second compound 3.16 µM, first compound 1 µM
[35] = second compound 3.16 µM, first compound 3.16 µM
[36] = second compound 3.16 µM, first compound 10 µM
[37] = second compound 10 µM, first compound 0.0316 µM
[38] = second compound 10 µM, first compound 0.1 µM
[39] = second compound 10 µM, first compound 0.316 µM
[40] = second compound 10 µM, first compound 1 µM
[41] = second compound 10 µM, first compound 3.16 µM
[42] = second compound 10 µM, first compound 10 µM
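Further: spheroids exposed to compounds for seven days.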
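Wherever viability, T/C is given: 100% = DMSO vehicle control viability.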

Q: Which IC50 [1] does the source give for `C=CCn1c(=O)c2cnc(Nc3ccc(N4CCN(C)CC4)cc3)nc2n1-c1cccc(C(C)(C)O)n1` + Cc1cnc(CNC(=O)c2c(=O)c3ccc(N4CCCN(C)CC4)nc3n3c2sc2ccccc23)cn1 here?
A: 2.61 µM

Q: What about the IC50 [2] of the same compound?
A: 1.06 µM

Q: And the IC50 [3]?
A: < 0.0316 µM

Q: What about the IC50 [4] of the same compound?
A: < 0.0316 µM

Q: What about the IC50 [5] of the same compound?
A: 0.828 µM

Q: And the IC50 [6]?
A: < 0.0316 µM

Q: What about the viability, T/C [7] of the same compound?
A: 92.1%

Q: And the viability, T/C [8]?
A: 70.7%

Q: And the viability, T/C [9]?
A: 81.6%

Q: And the viability, T/C [10]?
A: 78.6%

Q: And the viability, T/C [11]?
A: 44.3%

Q: And the viability, T/C [12]?
A: 28.4%

Q: And the viability, T/C [13]?
A: 69.1%

Q: What about the viability, T/C [14] of the same compound?
A: 60%

Q: And the viability, T/C [15]?
A: 55.6%

Q: What about the viability, T/C [16] of the same compound?
A: 51.5%

Q: And the viability, T/C [17]?
A: 23.1%

Q: What about the viability, T/C [18] of the same compound?
A: 25%

Q: What about the viability, T/C [19] of the same compound?
A: 50.9%

Q: And the viability, T/C [20]?
A: 42%

Q: What about the viability, T/C [21] of the same compound?
A: 32.1%

Q: What about the viability, T/C [22] of the same compound?
A: 36.4%

Q: What about the viability, T/C [23] of the same compound?
A: 41.3%

Q: And the viability, T/C [24]?
A: 33.8%

Q: What about the viability, T/C [25] of the same compound?
A: 42.8%

Q: And the viability, T/C [26]?
A: 49.4%

Q: What about the viability, T/C [27] of the same compound?
A: 39.2%

Q: What about the viability, T/C [28] of the same compound?
A: 39.4%

Q: What about the viability, T/C [29] of the same compound?
A: 47.5%

Q: And the viability, T/C [30]?
A: 44.1%

Q: And the viability, T/C [31]?
A: 56%

Q: And the viability, T/C [32]?
A: 49.9%

Q: And the viability, T/C [33]?
A: 49.5%

Q: And the viability, T/C [34]?
A: 41.4%

Q: What about the viability, T/C [35] of the same compound?
A: 50.5%

Q: And the viability, T/C [36]?
A: 53.8%

Q: And the viability, T/C [37]?
A: 47.7%

Q: And the viability, T/C [38]?
A: 36%

Q: What about the viability, T/C [39] of the same compound?
A: 45.7%

Q: And the viability, T/C [40]?
A: 40.8%

Q: What about the viability, T/C [41] of the same compound?
A: 40.9%

Q: And the viability, T/C [42]?
A: 39.1%

Q: What does the source list for `CC(C)n1c(=O)n(C)c2cnc3cc(F)c(-c4ccc(OCCCN5CCCCC5)nc4)cc3c21`?
A: viability, T/C (compound 0.0316 µM): 96.3% and 98.6% and 87.9%; viability, T/C (compound 0.1 µM): 105% and 85.5% and 77.3%; viability, T/C (compound 0.316 µM): 70.1% and 91.7% and 63.2%; viability, T/C (compound 1 µM): 96% and 84.2% and 81.9%; viability, T/C (compound 3.16 µM): 77.9% and 79.6% and 84.8%; viability, T/C (compound 10 µM): 49.7% and 55.9% and 41.8%; IC50 (curve of compound): > 10 µM and 7.75 µM

Q: How did the viability, T/C (compound 0.0316 µM) turn out when `CC(C)(O)C1CCC(Nc2ccc3ncc(-c4cccc(C(F)(F)F)c4)n3n2)CC1` (stereo not drawn) was run?
A: 106% and 88.2% and 93.2%

Q: What about the viability, T/C (compound 0.1 µM) of the same compound?
A: 81% and 82.6% and 81.6%

Q: And the viability, T/C (compound 0.316 µM)?
A: 89.6% and 84.6% and 88.7%

Q: What about the viability, T/C (compound 1 µM) of the same compound?
A: 82.9% and 101% and 90.8%

Q: What about the viability, T/C (compound 3.16 µM) of the same compound?
A: 78.8% and 68.7% and 81.9%

Q: And the viability, T/C (compound 10 µM)?
A: 79.6% and 68% and 98.6%

Q: What about the IC50 (curve of compound) of the same compound?
A: > 10 µM

Q: What does the source list for `C=CCn1c(=O)c2cnc(Nc3ccc(N4CCN(C)CC4)cc3)nc2n1-c1cccc(C(C)(C)O)n1` + Cc1[nH]c2ccc(F)cc2c1-c1nc2c3cccnc3c3ncccc3c2[nH]1?
A: IC50 [1]: 4.83 µM; IC50 [2]: 4.5 µM; IC50 [3]: 3.37 µM; IC50 [4]: 5.51 µM; IC50 [5]: 5.24 µM; IC50 [6]: 4.37 µM; viability, T/C [7]: 119%; viability, T/C [8]: 107%; viability, T/C [9]: 119%; viability, T/C [10]: 101%; viability, T/C [11]: 70.6%; viability, T/C [12]: 16.6%; viability, T/C [13]: 127%; viability, T/C [14]: 81.2%; viability, T/C [15]: 108%; viability, T/C [16]: 91.7%; viability, T/C [17]: 64.6%; viability, T/C [18]: 16.4%; viability, T/C [19]: 97.5%; viability, T/C [20]: 122%; viability, T/C [21]: 128%; viability, T/C [22]: 116%; viability, T/C [23]: 52.1%; viability, T/C [24]: 14.7%; viability, T/C [25]: 91.9%; viability, T/C [26]: 102%; viability, T/C [27]: 101%; viability, T/C [28]: 91%; viability, T/C [29]: 80.4%; viability, T/C [30]: 17.9%; viability, T/C [31]: 114%; viability, T/C [32]: 81.5%; viability, T/C [33]: 124%; viability, T/C [34]: 107%; viability, T/C [35]: 75.4%; viability, T/C [36]: 17.4%; viability, T/C [37]: 105%; viability, T/C [38]: 97.9%; viability, T/C [39]: 104%; viability, T/C [40]: 98.2%; viability, T/C [41]: 63.6%; viability, T/C [42]: 15%
